Laboratory results: ChEMBL document CHEMBL1145285, “Design and crystal structures of protein kinase B-selective inhibitors in complex with protein kinase A and mutants” (J Med Chem, 2005)

Columns and labels:
[1] = Inhibition protein kinase A
[2] = Inhibition of protein kinase AB (PKB amino acid substitutions); format: protein assay
[3] = target: cAMP-dependent protein kinase catalytic subunit alpha (Bos taurus) (UniProt P00517); experiment: Binding constant for protein kinase AB3 (3 PKB amino acid substitutions)
[4] = target: cAMP-dependent protein kinase catalytic subunit alpha (Bos taurus) (UniProt P00517); experiment: Binding constant for protein kinase AB5 (5 PKB amino acid substitutions)

Row | IC50 [1] [nM] | IC50 [2] [nM] | Kd [3] [nM] | Kd [4] [nM] | SMILES
1 | 1900 | 20 | 77 | 8 | CC1(C)CCCN(c2ccc(O)c(C(=O)c3ccc(C(=O)N[C@@H]4CCCNC[C@H]4NC(=O)c4ccncc4)cc3)c2)C1.Cl.Cl.Cl
2 | – | 40 | – | – | CC1(C)CCN(c2ccc(O)c(C(=O)c3ccc(C(=O)N[C@@H]4CCCNC[C@H]4NC(=O)c4ccncc4)cc3)c2)CC1.Cl.Cl.Cl

Continued, compound first:

Row | SMILES | IC50 [1] [nM] | IC50 [2] [nM] | Kd [3] [nM] | Kd [4] [nM]
3 | CC1(C)CCCNC1c1ccc(O)c(C(=O)c2ccc(C(=O)N[C@@H]3CCCNC[C@H]3NC(=O)c3ccncc3)cc2)c1F.Cl.Cl.Cl (stereo partly specified) | 2400 | 750 | 3770 | 260
4 | CN(C)c1ccc(O)c(C(=O)c2ccc(C(=O)N[C@@H]3CCCNC[C@H]3NC(=O)c3ccncc3)cc2)c1.Cl.Cl.Cl | 30 | 23 | 41 | –
5 | Cl.Cl.Cl.O=C(N[C@@H]1CCCNC[C@H]1NC(=O)c1ccncc1)c1ccc(C(=O)c2cc(N3CCCCC3)ccc2O)cc1 | 400 | 20 | 193 | 9
